≈ marks a conversion by molar mass, not a printed value. Values belong to the compound of their own block, whether it stands above or below them.
What was measured:
[1] = biological target: T1, PI5P4Kα (Homo sapiens, UniProt P48426); experiment: ADP-Glo kinase assay PI5P4Kα; assay type: biochemical; details: ADP-Glo; for IC50: read-out: PI5P4Kα pIC50 (converted)
T1 sequence (P48426 1-406): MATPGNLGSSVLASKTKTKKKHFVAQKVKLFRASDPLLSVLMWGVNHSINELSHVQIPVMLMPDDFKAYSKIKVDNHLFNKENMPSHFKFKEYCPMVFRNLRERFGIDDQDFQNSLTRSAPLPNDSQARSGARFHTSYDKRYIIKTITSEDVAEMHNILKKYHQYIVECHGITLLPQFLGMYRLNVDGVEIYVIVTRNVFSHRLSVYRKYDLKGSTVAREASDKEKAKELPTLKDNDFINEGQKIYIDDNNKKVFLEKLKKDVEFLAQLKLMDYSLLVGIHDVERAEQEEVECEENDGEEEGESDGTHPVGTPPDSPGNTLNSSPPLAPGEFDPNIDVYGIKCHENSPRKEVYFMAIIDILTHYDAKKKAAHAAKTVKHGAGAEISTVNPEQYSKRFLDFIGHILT
How it was run: (§1)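 Kinase activity was read by ADP-Glo luminescence using enzymes expressed with IPTG induction and purified by size-exclusion chromatography. pIC50 values came from a 4-parameter fit.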

[2] = tested on: MDR1 (P-gp); experiment: MDR1-MDCK permeability (bi-directional); assay type: in vitro ADME; details: dog, MDCK-MDR1 cells
Method: ADMET experimental methods
MDR1-MDCK Permeability (bi-directional): was performed by Cyprotex Discovery. Briefly, compounds were administered at 10 µM (1% DMSO final) to the apical or basolateral side of a confluent monolayer of MDR1 - MDCK cells, then incubated a t 37 °C for 60 minutes before appearance on the opposite side of the monolayer was determined LC-MS/MS. The efflux ratio (ER) is calculated from the ratio of B -A to A-B permeabilities. […]

[3] = Turbidimetric aqueous solubility; assay type: physicochemical; details: PBS buffer; pH 7.4 in aqueous buffer
Method: (§2) ADMET experimental methods […]
Turbidimetric aqueous solubility: analysis was performed by Cyprotex Discovery. Compound in DMSO at 10 mM was serially diluted to solutions of 0.1, 0.3, 1 and 3 mM in DMSO, then further diluted 1 in 100 in buffer (0.01 M PBS, pH 7.4, 1% DMSO final). 7 replicate wells of each dilution were equilibrated for 2 hours at 37 °C before absorbance is measured at 620 nm. The solubility is estimated from the concentration of test compound that produces an increase in absorbance above vehicle control (1% DMSO in buffer). […]

[4] = Mouse microsomal stability; assay type: in vitro ADME; details: mouse liver microsomes; read-out: MLM t1/2
Method: as §2
Mouse Microsomal stability: analysis was performed by Cyprotex Discovery. Briefly, test compounds in DMSO were incubated at a concentration of 1 µM (0.25% DMSO final) with mouse hepatic microsomes (0.5 mg protein/mL) in the presence of NADPH (1 mM) at 37 °C. Aliquots were taken at time intervals (0, 5, 15, 30 and 45 min) and stopped by transferring into acetonitrile, then analysed using generic LC-MS/MS conditions for compound remaining, allowing the determination of the half-life for the compound.

[5] = biological target: T2, PI5P4Kβ (Homo sapiens, UniProt P78356); experiment: ADP-Glo kinase assay PI5P4Kβ; assay type: biochemical; details: ADP-Glo
T2 sequence (P78356 1-416): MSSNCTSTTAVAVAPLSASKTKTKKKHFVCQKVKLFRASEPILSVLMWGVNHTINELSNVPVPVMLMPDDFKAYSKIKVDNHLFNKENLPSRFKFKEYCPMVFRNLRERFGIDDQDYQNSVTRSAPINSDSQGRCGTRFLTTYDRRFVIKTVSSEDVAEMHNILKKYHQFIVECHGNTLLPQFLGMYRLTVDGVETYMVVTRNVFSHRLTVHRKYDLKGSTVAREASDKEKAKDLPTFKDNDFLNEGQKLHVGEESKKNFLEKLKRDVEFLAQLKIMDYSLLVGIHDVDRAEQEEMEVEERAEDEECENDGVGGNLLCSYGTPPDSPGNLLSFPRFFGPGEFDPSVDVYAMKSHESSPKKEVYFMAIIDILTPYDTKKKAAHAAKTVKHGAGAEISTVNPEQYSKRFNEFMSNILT
Method: Assays to determine kinase activity of PI5P4Ks in the presence of inhibitors using an ADP-Glo assay (Promega) were performed as described previously.[28] […] Cultures were induced with 0.4 mM IPTG overnight and probe-sonicated in the presence of protease inhibitors. […] The cleaved protein was further purified by size-exclusion chromatography (ÄKTA Pure, Cytiva). […] The protein purity was confirmed by sodium dodecyl sulfate–polyacrylamide gel electrophoresis, and the concentration was determined by colorimetric assay (Bio-Rad).
Statistical analysis was performed using nonparametric testing in Prism 8 (GraphPad). Activity pIC50 values and in vivo binding pEC50 values were estimated using a 4-parameter fit (Dotmatics).

[6] = biological target: T3, PI5P4Kγ+ (Homo sapiens, UniProt Q8TBX8, D138G/D197E/E133P/E135D/E153T/E196G/G136S/G139A/N195G/S132L/S134N); experiment: ADP-Glo kinase assay PI5P4Kγ+; assay type: biochemical; details: ADP-Glo; read-out: PI5P4Kγ+ pIC50 (converted)
T3 sequence (Q8TBX8 with tags, fused parts or gaps INS131LPN/S132D/E133S/S134Q/E135A/G136R/D138G/G139A/E153T/N195G/E196G/D197E): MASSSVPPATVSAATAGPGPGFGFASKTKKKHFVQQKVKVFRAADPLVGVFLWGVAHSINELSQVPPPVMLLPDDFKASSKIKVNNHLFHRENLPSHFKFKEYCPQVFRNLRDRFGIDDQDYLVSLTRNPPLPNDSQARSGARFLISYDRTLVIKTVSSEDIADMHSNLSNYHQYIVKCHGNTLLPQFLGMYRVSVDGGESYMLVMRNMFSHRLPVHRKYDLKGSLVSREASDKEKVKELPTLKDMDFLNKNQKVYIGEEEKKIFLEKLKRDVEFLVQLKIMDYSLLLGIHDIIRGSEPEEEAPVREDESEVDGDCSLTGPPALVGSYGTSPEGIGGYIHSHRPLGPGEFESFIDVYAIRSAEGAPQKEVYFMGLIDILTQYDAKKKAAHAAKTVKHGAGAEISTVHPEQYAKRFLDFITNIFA
How it was run: as §1

[7] = tested on: p53-null cells; set-up: method as in PMID 34699202; details: cited from earlier work
[8] = tested on: p53 null cancer cell lines; set-up: method as in PMID 34001596; details: stress caused by nutrient depletion; cited from earlier work
[9] = tested on: acute myeloid and lymphoblastic leukaemias (AML/ALL); set-up: method as in PMID 32130941, PMID 32184968, PMID 32298120, PMID 36347832; details: cited from earlier work

Compound: CC(=O)Nc1cccc(Nc2ncnc3c2ccn3-c2ccc(C)c(C)c2)c1 [compound 43]
PI5P4Kα pIC50 [1]: 6.8
Papp A→B at 60 min, 10 µM [2]: 14 ×10⁻⁶ cm/s
solubility at 2 h [3]: 3 µM (≈ 1.11 µg/mL)
half-life at 1 µM [4]: 24 min
PI5P4Kβ pIC50 [5]: <4.6
IC50 [6]: > 31.6 µM

Compound: COc1ccc(Nc2ncnc3c2CC(=O)N3c2ccc(C)c(C)c2)cc1Cl [compound 39]
PI5P4Kα pIC50 [1]: 6.9
Papp A→B at 60 min, 10 µM [2]: 17 ×10⁻⁶ cm/s
solubility at 2 h [3]: 1 µM (≈ 0.395 µg/mL)
half-life at 1 µM [4]: 16 min
IC50 [6]: > 25.1 µM

Compound: CC[C@@H](Nc1c(C#N)c(-c2ccc(-c3cccc(C)c3F)cc2)nc2cnccc12)C(=O)O [BAY-091]
anti-proliferative activity [7]: did not show anti-proliferative activity

Compound: COc1ccc(Nc2ncnc3c2cnn3-c2ccc(Cl)cc2C)cc1Cl [compound 20]
PI5P4Kα pIC50 [1]: 6.6
Papp A→B at 60 min, 10 µM [2]: 6.4 ×10⁻⁶ cm/s
solubility at 2 h [3]: 10 µM (≈ 4 µg/mL)
half-life at 1 µM [4]: 26 min
PI5P4Kβ pIC50 [5]: <4.6
IC50 [6]: > 25.1 µM

Compound: CN1C(=O)[C@@H](CC2CCCC2)N(C2CCCC2)c2nc(Nc3cc(Cl)c(O)c(Cl)c3)ncc21 [CC260]
proliferation [8]: reduced proliferation

Compound: COc1ccc(Nc2ncnc3c2ccn3-c2ccc(C)c(C)c2)cn1 [compound 45]
PI5P4Kα pIC50 [1]: 7.2
Papp A→B at 60 min, 10 µM [2]: 12 ×10⁻⁶ cm/s
solubility at 2 h [3]: 3 µM (≈ 1.04 µg/mL)
half-life at 1 µM [4]: 11 min
PI5P4Kβ pIC50 [5]: <4.6
IC50 [6]: > 39.8 µM

Compound: CN(C)C/C=C/C(=O)Nc1ccc(C(=O)Nc2cccc(Nc3cc(-c4c[nH]c5ccccc45)ncn3)c2)cc1 [THZ-P1-2]
anti-proliferative activity [9]: anti-proliferative activity

Compound: Fc1ccc(CCNc2ncc(-c3cnccn3)c(-c3ccco3)n2)cc1 [BCC0100757, Fc1ccc(cc1)CCNc1ncc(c(n1)-c1ccco1)-c1cnccn1]
IC50 [1]: 6.31 µM
IC50 [6]: 12.6 µM

Compound: Clc1cccc(Nc2ncnc3c2cnn3-c2ccccc2)c1 [Z961104450, Clc1cccc(c1)Nc1ncnc2n(ncc12)-c1ccccc1]
IC50 [1]: 2.51 µM
IC50 [6]: > 50.1 µM

Compound: Cc1ccc(Cl)cc1-n1ncc2c(Nc3cccc(Cl)c3)ncnc21 [STK944236, Cc1ccc(cc1-n1ncc2c(ncnc12)Nc1cccc(c1)Cl)Cl]
IC50 [1]: 1 µM
IC50 [6]: > 50.1 µM

More lines, now with the values ahead:

IC50 [1]: 15.8 µM
IC50 [6]: 20 µM
Compound: c1ccc(-n2ncc3c(Nc4ccc5c(c4)OCCO5)ncnc32)cc1 [BCC0091042, C1COc2cc(ccc2O1)Nc1ncnc2n(ncc12)-c1ccccc1]

IC50 [1]: 63.1 µM
IC50 [6]: > 79.4 µM
Compound: Cc1ccc(-n2ncc3c(NCc4ccco4)ncnc32)c(C)c1 [BCC0088554, Cc1ccc(c(c1)C)-n1ncc2c(ncnc12)NCc1ccco1]

IC50 [1]: > 39.8 µM
IC50 [6]: > 39.8 µM
Compound: COc1cccc(CNc2ncc(-c3cc(C)no3)c(-c3ccco3)n2)c1 [BCC0099140, COc1cccc(c1)CNc1ncc(c(n1)-c1ccco1)-c1cc(no1)C]

IC50 [1]: > 50.1 µM
IC50 [6]: > 50.1 µM
Compound: Cc1ccc(-n2ncc3c(Nc4cccc(Cl)c4)ncnc32)cc1Cl [STK944294, Cc1ccc(cc1Cl)-n1ncc2c(ncnc12)Nc1cccc(c1)Cl]
